Test results as given in patent publication US9169241B2, “Quinolinyloxyphenylsulfonamides” (Max-Planck-Gesellschaft Zur Forderung der Wissenschaften …, priority 2009, dated 2015).
Read-outs that look alike come from different tables or passages of the source.

What was measured:
Hs578T [1] = experiment: Cell vitality assay (ATP assay, CellTiter-Glo); assay type: cell-based; conditions: Homo sapiens, Hs-578T, 72 h
Outline: (§1)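 Luminescent ATP read-out of viable cells; IC50 = concentration at which ATP falls to 50% of DMSO control. Cells seeded at 1000/well, treated 72 h with seven concentrations from 0.195 to 12.5 μM.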

SF126 = experiment: Cell vitality assay (ATP assay, CellTiter-Glo); assay type: cell-based; conditions: Homo sapiens, SF-126
Outline: as §1

U118 = experiment: Cell vitality assay (ATP assay, CellTiter-Glo); assay type: cell-based
Outline: as §1

indicated cell line = experiment: Wound healing migration assay (Table IV); assay type: cell-based; conditions: compounds at 12.5, 6.25, 3.125 μM, 48 h-72 h
Outline: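 Compound exposure at 12.5, 6.25 and 3.125 μM, with DMSO control, on scratch-wounded monolayers (150000 cells/24 well, overnight). Wound closure imaged by microscopy, fixed with crystal violet after 48 h or 72 h depending on cell line; IC50 is the concentration giving 50% wound size between t0 and t48/t72.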

Hs578T [2] = experiment: Matrigel outgrowth assay/branching assay; assay type: cell-based; conditions: Homo sapiens, Hs-578T; HS578T cell line; Table Ib; read-out: Total branching inhibition in Matrigel HS578T
Outline: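 Invasive outgrowth into a 3 mg/ml Matrigel gel is judged from images taken after 48, 72 and 96 h of exposure to 3.125, 1.56 or 0.78 μM compound, with DMSO as control. Positive means total inhibition of branching.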

[3] = HS578T cell line, Table Ib, read-out: IC50 ATP-Assay HS578T after 72 h
[4] = Hs578T, Table IIa, read-out: IC50 ATP-Assay after 72 h Hs578T
[5] = SF126, 72 h, Table IIa, read-out: IC50 ATP-Assay after 72 h SF126
[6] = U118, 72 h, Table IIa, read-out: IC50 ATP-Assay after 72 h U118
[7] = Homo sapiens, C8161 cells, read-out: IC50 Wound healing Assay C8161
[8] = SF763 cells, read-out: IC50 Wound healing Assay SF763
[9] = Homo sapiens, A 172, A172 cells, read-out: IC50 Wound healing Assay A172
[10] = Homo sapiens, SF-126, SF126 cells, read-out: IC50 Wound healing Assay SF126
[11] = U118 cells, read-out: IC50 Wound healing Assay U118

COc1cc2c(Oc3ccc(NS(=O)(=O)c4ccc(C)c(F)c4)cc3F)ccnc2cc1OCCCN1CCCC(C)C1 (stereo not shown) [Example 56, 3-Fluoro-N-(3-fluoro-4-{6-methoxy-7-[3-(3-methyl-piperidin-1-yl)-propoxy]-quinolin-4-yloxy}-phenyl)-4-methyl-benzenesulfonamide]
IC50 (Hs578T [1]; [3]): 12.5 to 50 µM
IC50 (Hs578T [1]; [4]): 12.5 to 50 µM
IC50 (SF126; [5]): ≤ 12.5 µM
IC50 (U118; [6]): 12.5 to 50 µM
IC50 (indicated cell line; [7]): ≤ 12.5 µM
IC50 (indicated cell line; [8]): 12.5 to 50 µM
IC50 (Hs578T [2]): 10 to 25 µM
melting point: 174 to 176 °C

COc1cc2c(Oc3ccc(NS(=O)(=O)c4cccc(Oc5ccccc5)c4)cc3F)ccnc2cc1OCCCN1CCCC(C)C1 (stereo not shown) [Example 59, N-(3-Fluoro-4-{6-methoxy-7-[3-(3-methyl-piperidin-1-yl)-propoxy]-quinolin-4-yloxy}-phenyl)-3-phenoxy-benzenesulfonamide]
IC50 (Hs578T [1]; [3]): ≤ 12.5 µM
IC50 (Hs578T [1]; [4]): ≤ 12.5 µM
IC50 (SF126; [5]): 12.5 to 50 µM
IC50 (U118; [6]): 12.5 to 50 µM
IC50 (indicated cell line; [7]): 12.5 to 50 µM
IC50 (indicated cell line; [8]): ≤ 12.5 µM
IC50 (Hs578T [2]): ≤ 10 µM
melting point: 146 to 147 °C

COc1cc2c(Oc3ccc(NS(=O)(=O)c4ccc(Cl)s4)cc3F)ccnc2cc1OCCCN1CCCC(C)C1 (stereo not shown) [Example 63, 5-Chloro-thiophene-2-sulfonic acid (3-fluoro-4-{6-methoxy-7-[3-(3-methyl-piperidin-1-yl)-propoxy]-quinolin-4-yloxy}-phenyl)-amide]
IC50 (Hs578T [1]; [3]): ≤ 12.5 µM
IC50 (Hs578T [1]; [4]): ≤ 12.5 µM
IC50 (SF126; [5]): 12.5 to 50 µM
IC50 (U118; [6]): ≤ 12.5 µM
IC50 (indicated cell line; [7]): 12.5 to 50 µM
IC50 (indicated cell line; [8]): ≤ 12.5 µM
IC50 (Hs578T [2]): ≤ 10 µM
melting point: 100 to 103 °C

COC(=O)c1sccc1S(=O)(=O)Nc1ccc(Oc2ccnc3cc(OCCCN4CCCC(C)C4)c(OC)cc23)c(F)c1 (stereo not shown) [Example 66, 3-(3-Fluoro-4-{6-methoxy-7-[3-(3-methyl-piperidin-1-yl)-propoxy]-quinolin-4-yloxy}-phenylsulfamoyl)-thiophene-2-carboxylic acid methyl ester]
IC50 (Hs578T [1]; [3]): ≤ 12.5 µM
IC50 (SF126; [5]): ≤ 12.5 µM
IC50 (SF126; cell vitality assay, SF126, Table IIb, read-out: IC50 SF126): ≤ 12.5 µM
IC50 (U118; [6]): ≤ 12.5 µM
IC50 (U118; cell vitality assay, U118, Table IIc, read-out: IC50 U118): ≤ 12.5 µM
IC50 (indicated cell line; [9]): ≤ 12.5 µM
IC50 (indicated cell line; [10]): ≤ 12.5 µM
IC50 (indicated cell line; [11]): ≤ 12.5 µM
IC50 (Hs578T [2]): 10 to 25 µM
melting point: 132 to 134 °C

COc1cc2c(Oc3ccc(NS(=O)(=O)c4cccc(C)c4)cc3F)ccnc2cc1OCCCN1CCCC(C)C1 (stereo not shown) [Example 70, N-(3-Fluoro-4-{6-methoxy-7-[3-(3-methyl-piperidin-1-yl)-propoxy]-quinolin-4-yloxy}-phenyl)-3-methyl-benzenesulfonamide]
IC50 (Hs578T [1]; [4]): 12.5 to 50 µM
IC50 (SF126; [5]): ≤ 12.5 µM
IC50 (U118; [6]): ≤ 12.5 µM
IC50 (indicated cell line; [7]): 12.5 to 50 µM
IC50 (indicated cell line; [8]): ≤ 12.5 µM
IC50 (Hs578T [2]): ≤ 10 µM
melting point: 168 to 170 °C

COc1cc2c(Oc3ccc(NS(=O)(=O)c4ccc(F)c(C#N)c4)cc3F)ccnc2cc1OCCCN1CCCC(C)C1 (stereo not shown) [Example 72, 3-Cyano-4-fluoro-N-(3-fluoro-4-{6-methoxy-7-[3-(3-methyl-piperidin-1-yl)-propoxy]-quinolin-4-yloxy}-phenyl)-benzenesulfonamide]
IC50 (Hs578T [1]; [4]): 12.5 to 50 µM
IC50 (SF126; [5]): 12.5 to 50 µM
IC50 (U118; [6]): 12.5 to 50 µM
IC50 (indicated cell line; [7]): ≤ 12.5 µM
IC50 (indicated cell line; [8]): ≤ 12.5 µM
IC50 (Hs578T [2]): ≤ 10 µM
melting point: 125 to 127 °C

COc1cc2c(Oc3ccc(NS(=O)(=O)c4c(F)cccc4F)cc3F)ccnc2cc1OCCCN1CCOCC1 [Example 77, 2,6-Difluoro-N-{3-fluoro-4-[6-methoxy-7-(3-morpholin-4-yl-propoxy)-quinolin-4-yloxy]-phenyl}-benzenesulfonamide]
IC50 (Hs578T [1]; [3]): ≤ 12.5 µM
IC50 (Hs578T [1]; [4]): ≤ 12.5 µM
IC50 (SF126; [5]): 12.5 to 50 µM
IC50 (U118; [6]): ≤ 12.5 µM
IC50 (indicated cell line; [9]): ≤ 12.5 µM
IC50 (indicated cell line; [10]): ≤ 12.5 µM
IC50 (indicated cell line; [7]): ≤ 12.5 µM
IC50 (indicated cell line; [8]): ≤ 12.5 µM
IC50 (indicated cell line; [11]): ≤ 12.5 µM
IC50 (Hs578T [2]): ≤ 10 µM
melting point: 190 to 192 °C

COc1cc2c(Oc3ccc(NS(=O)(=O)c4ccccc4OC(F)(F)F)cc3F)ccnc2cc1OCCCN1CCCCC1 [Example 78, N-{3-Fluoro-4-[6-methoxy-7-(3-piperidin-1-yl-propoxy)-quinolin-4-yloxy]-phenyl}-2-trifluoromethoxy-benzenesulfonamide]
IC50 (Hs578T [1]; [3]): ≤ 12.5 µM
IC50 (SF126; [5]): ≤ 12.5 µM
IC50 (U118; [6]): ≤ 12.5 µM
IC50 (indicated cell line; [9]): ≤ 12.5 µM
IC50 (indicated cell line; [10]): ≤ 12.5 µM
IC50 (indicated cell line; [11]): ≤ 12.5 µM
IC50 (Hs578T [2]): ≤ 10 µM
melting point: 156 to 158 °C

COc1cc2c(Oc3ccc(NS(=O)(=O)c4ccccc4C(F)(F)F)cc3Cl)ccnc2cc1OCCCN1CCN(C)CC1 [Example 87, N-(3-Chloro-4-{6-methoxy-7-[3-(4-methyl-piperazin-1-yl)-propoxy]-quinolin-4-yloxy}-phenyl)-2-trifluoromethyl-benzenesulfonamide]
IC50 (Hs578T [1]; [3]): 12.5 to 50 µM
IC50 (Hs578T [1]; [4]): 12.5 to 50 µM
IC50 (SF126; [5]): ≤ 12.5 µM
IC50 (U118; [6]): ≤ 12.5 µM
IC50 (indicated cell line; [9]): ≤ 12.5 µM
IC50 (indicated cell line; [10]): ≤ 12.5 µM
IC50 (indicated cell line; [7]): 12.5 to 50 µM
IC50 (indicated cell line; [8]): ≤ 12.5 µM
IC50 (indicated cell line; [11]): ≤ 12.5 µM
IC50 (Hs578T [2]): ≤ 10 µM
melting point: 103 to 105 °C

COc1cc2c(Oc3ccc(NS(=O)(=O)c4ccccc4C(F)(F)F)cc3F)ccnc2cc1OCC(=O)N(C)C [Example 93, 2-{4-[2-Fluoro-4-(2-trifluoromethyl-benzenesulfonylamino)-phenoxy]-6-methoxy-quinolin-7-yloxy}-N,N-dimethyl-acetamide]
IC50 (Hs578T [1]; [4]): ≤ 12.5 µM
IC50 (SF126; [5]): ≤ 12.5 µM
IC50 (U118; [6]): ≤ 12.5 µM
IC50 (indicated cell line; [7]): ≤ 12.5 µM
IC50 (indicated cell line; [8]): 12.5 to 50 µM
IC50 (Hs578T [2]): ≤ 10 µM
melting point: 134 to 135 °C

COc1cc2c(Oc3ccc(NS(=O)(=O)c4ccccc4C(F)(F)F)cc3F)ccnc2cc1OCCCN1CCCCC1C (stereo not shown) [Example 99, N-(3-Fluoro-4-{6-methoxy-7-[3-(2-methyl-piperidin-1-yl)-propoxy]-quinolin-4-yloxy}-phenyl)-2-trifluoromethyl-benzenesulfonamide]
IC50 (Hs578T [1]; [3]): ≤ 12.5 µM
IC50 (Hs578T [1]; [4]): ≤ 12.5 µM
IC50 (SF126; [5]): ≤ 12.5 µM
IC50 (U118; [6]): ≤ 12.5 µM
IC50 (indicated cell line; [9]): ≤ 12.5 µM
IC50 (indicated cell line; [10]): ≤ 12.5 µM
IC50 (indicated cell line; [7]): 12.5 to 50 µM
IC50 (indicated cell line; [8]): ≤ 12.5 µM
IC50 (indicated cell line; [11]): ≤ 12.5 µM
IC50 (Hs578T [2]): ≤ 10 µM
melting point: 115 to 116 °C

COc1cc2c(Oc3ccc(NS(=O)(=O)c4ccccc4C(F)(F)F)cc3F)ccnc2cc1OCCCN(C)C [Example 100, N-{4-[7-(3-Dimethylamino-propoxy)-6-methoxy-quinolin-4-yloxy]-3-fluoro-phenyl}-2-trifluoromethyl-benzenesulfonamide]
IC50 (Hs578T [1]; [3]): ≤ 12.5 µM
IC50 (SF126; [5]): ≤ 12.5 µM
IC50 (U118; [6]): ≤ 12.5 µM
IC50 (indicated cell line; [9]): ≤ 12.5 µM
IC50 (indicated cell line; [10]): ≤ 12.5 µM
IC50 (indicated cell line; [7]): 12.5 to 50 µM
IC50 (indicated cell line; [8]): ≤ 12.5 µM
IC50 (indicated cell line; [11]): ≤ 12.5 µM
IC50 (Hs578T [2]): ≤ 10 µM
melting point: 89 to 91 °C

COc1cc2c(Oc3ccc(NS(=O)(=O)c4c(Cl)cccc4Cl)cc3F)ccnc2cc1OCCN1CCOCC1 [Example 104, 2,6-Dichloro-N-{3-fluoro-4-[6-methoxy-7-(2-morpholin-4-yl-ethoxy)-quinolin-4-yloxy]-phenyl}-benzenesulfonamide]
IC50 (Hs578T [1]; [3]): ≤ 12.5 µM
IC50 (SF126; [5]): 12.5 to 50 µM
IC50 (U118; [6]): 12.5 to 50 µM
IC50 (indicated cell line; [9]): 12.5 to 50 µM
IC50 (indicated cell line; [10]): ≤ 12.5 µM
IC50 (indicated cell line; [11]): ≤ 12.5 µM
IC50 (Hs578T [2]): 10 to 25 µM
melting point: 210 to 211 °C

COc1cc2c(Oc3ccc(NS(=O)(=O)c4cc(F)ccc4F)cc3Cl)ccnc2cc1OCCCN1CCN(C)CC1 [Example 112, N-(3-Chloro-4-{6-methoxy-7-[3-(4-methyl-piperazin-1-yl)-propoxy]-quinolin-4-yloxy}-phenyl)-2,5-difluoro-benzenesulfonamide]
IC50 (Hs578T [1]; [3]): ≤ 12.5 µM
IC50 (SF126; [5]): ≤ 12.5 µM
IC50 (U118; [6]): ≤ 12.5 µM
IC50 (indicated cell line; [9]): ≤ 12.5 µM
IC50 (indicated cell line; [10]): ≤ 12.5 µM
IC50 (indicated cell line; [11]): ≤ 12.5 µM
IC50 (Hs578T [2]): ≤ 10 µM
melting point: 118 to 121 °C

COc1cc2c(Oc3ccc(NS(=O)(=O)c4c(Cl)cccc4Cl)cc3Cl)ccnc2cc1OCCCN1CCN(C)CC1 [Example 119, 2,6-Dichloro-N-(3-chloro-4-{6-methoxy-7-[3-(4-methyl-piperazin-1-yl)-propoxy]-quinolin-4-yloxy}-phenyl)-benzenesulfonamide]
IC50 (Hs578T [1]; [3]): ≤ 12.5 µM
IC50 (SF126; [5]): ≤ 12.5 µM
IC50 (U118; [6]): ≤ 12.5 µM
IC50 (indicated cell line; [9]): ≤ 12.5 µM
IC50 (indicated cell line; [10]): ≤ 12.5 µM
IC50 (indicated cell line; [11]): ≤ 12.5 µM
IC50 (Hs578T [2]): ≤ 10 µM
melting point: 171 to 172 °C
